Experimental data as given in patent publication US6969590B2, “Use of a polypeptide for treatment of pruritus in animals” (Zengen, Inc., priority 2001, dated 2005).
Entries after “also recorded” stand apart in the source; their conditions may differ.

Columns and labels:
[1] = test system: inflammation induced in the ear by picryl chloride; assay: Picryl chloride-induced ear swelling; type: in vivo, BALB/C mice
Description: Female BALB/C mice (Simmons Laboratories), 7 weeks old, were housed at 23-25° C. in groups of no more than 5 per cage [28 cm (L)×18 cm (W)×13 cm (H)]. They were allowed to acclimatize to standard lighting and temperature conditions for at least 1 week, with food and water available ad lib, before the experiment began. Five to ten animals were randomly assigned to each treatment group each test day, and all experiments were repeated at least twice to confirm reproducibility. To reduce error due to slight differences in responses to the irritant of animals from different shipments, tests of each agent were performed as separate experiments in which experimental and control animals were drawn from the same shipment.
In the experiments each animal was anesthetized with 1 mg of pentobarbital sodium solution (50 mg/kg, Nembutal, Abbott Laboratories, Abbott park, Ill.). Baseline ear thickness was measured for both ears with a spring-loaded micrometer (Swiss Precision Instruments, Los Angeles, Calif.). Ear thickness was expressed in units of 10^−3 cm; the average thickness of unstimulated ears was approximately 25-30×10^−3 cm. After baseline measurements were taken, one of six solutions was injected IP. Control animals received 0.2 ml of sterile saline, and experimental animals received Ac-α-MSH (11-13)-NH2, i.e., Ac-Lys-Pro-Val-NH2), Ac[D-Lys^11] α-MSH (11-13)-NH2, Ac[D-Pro^12] α-MSH (11-13)-NH2, Ac[D-Val^13] α-MSH (11-13)-NH2 or Ac-[D-Lys^11, D-Val^13] α-MSH (11-13)-NH2 in the same volume of saline. […] The doses of the tripeptides were 10 μg ([…]), 20 μg ([…]), 40 μg (1.04×10^−7 M), and 80 μg (2.08×10^−7 M). Immediately after saline or α-MSH injection, a micropipette was used to coat both sides of each ear with 10 μl (40 μl per mouse) of a 0.5% picryl chloride (Polysciences, Warrington, Pa.) solution in acetone.
Ear thickness was remeasured 3 and 6 h after picryl chloride application. Swelling was determined by subtracting baseline thickness from the measurements for each ear at 3 and 6 h. The differences for both ears were then averaged for the final analysis.
Repeated-measure ANOVA techniques were used to determine if there was an overall difference among group data for each peptide tested in separate experiments. In those cases in which the ANOVA yielded significant results, Dunnett's test was then used to compare the effects of peptide doses with control (saline) data for each of the two time periods, 3 and 6 h.

[2] = kind of activity not given; cited from earlier work
C. albicans [3] = assay: Horse serum-induced germ tube formation of C. albicans; type: cell-based; details: 10^−6M, 60 minutes at 37° C.
Description: C. albicans from stationary phase cultures were washed twice with distilled water and suspended in HBSS to a final concentration of 2×10^6/ml. Hyphal growth was induced by addition of 10% inactivated horse serum (GIBCO/BRL, Great Britain) to yeast incubated for 45 minutes at 37° C. with continuous shaking. Horse serum was removed by washing cells twice with HBSS and incubation was continued for 60 minutes at 37° C. in the presence of α-MSH (1-13), α-MSH (6-13) or α-MSH (11-13) at a concentration of 10^−6M with continuous shaking. The percentage of filamentous cells was evaluated under a light microscope with the aid of hemocytometer. Experiments were run in triplicate and at least 200 cells were scored. Photomicrographs were taken with an MC100 camera attached to an Axioskop Zeiss microscope.

IL-6 = IL-6 production by activated N9 microglia; type: cell-based, murine; details: microglia stimulated with LPS+IFN-γ for 24 hr, micromolar concentrations
Description: (§1) The N9 clone of murine microglial cells was obtained by immortalization of embryonic brain cultures with the 3RV retrovirus carrying an activated v-myconcogene. N9 cells were cultured in T-75-cm^2 culture flasks (Corning, Cambridge, Mass.) and maintained at 37° C. in a humidified incubator under 5% CO2 atmosphere in RPMI 1640 supplemented with 2 mM L-glutamine, 50 U/mL penicillin G, 50 μg/mL streptomycin sulfate (GIBCO-BBL, Paisley, UK), and 10% heat-inactivated fetal bovine serum (FBS, Hyclone Lab, Inc., Logan, Utah) until experiments were performed. Cells were used between the first and the tenth passage.
(§2) Sub-confluent microglial cells were washed twice with phosphate-buffered saline (PBS) and incubated with trypsin 0.025% and ethylenediaminetetraacetate (EDTA) 0.02% without calcium and magnesium for 3 min. at 37° C. to detach the cells from the culture flask. Cells were then resuspended in medium and incubated in 24-well tissue-culture plates at a concentration of 2×10^5 cells/mL for 16 h in a humidified incubator (37° C., 5% CO2). Growth medium was removed and cell monolayers were stimulated with 10 ng/mL lipopolysaccharide (LPS, from Escherichia coli 055:B5, Sigma Chemical Co., St. Louis, Mo.) plus 1 U/ml, murine IFN-γ (Sigma). To test effects of melanocortin peptides, concentrations (1, 10, 25, 50 and 100 μM) of α-MSH (1-13), α-MSH (11-13), and ACTH (1-24) (Sigma) were dissolved in medium and added to wells 10 min before treatment with LPS+IFN-γ. […] Viability of cells was assessed by trypan blue exclusion for each experimental condition; it was consistently >98%. […]
(§3) TNF-α bioactivity was measured in supernatants of cell cultures by standard cytotoxicity assay using L929 cells and recombinant human TNF-α (Sigma) as standard. […] IL-6 was measured using a commercial murine enzyme-linked immunosorbent assay (ELISA: RPN 2714, Amersham, Little Chalfont, UK).
(§4) Effects of melanocortin peptides on cytokine and NO production were evaluated by repeated measures analysis of variance followed by Dunnet's test for specific comparisons. […]

C. albicans [4] = assay: C. albicans colony forming units (candidacidal activity); type: cell-based
Description: C. albicans (1×10^6/ml in HBSS) was incubated in the presence or absence or α-MSH (1-13) or α-MSH (11-13) at concentrations in the range of 10^−15 M to 10^−6 M for 2 hours at 37° C. Cells were then washed in cold distilled water and diluted with HBSS to a concentration of 100 organisms/ml. One-ml aliquots were dispensed on blood agar plates and incubated for 48 hours at 37° C. Organism viability was estimated from the number of colonies formed. In subsequent experiments using familiar procedures we compared activity of α-MSH (4-10), α-MSH (6-13), α-MSH (11-13), ACTH (1-39), (18-39) and fluconazole, the latter an established antifungal agent. Melanocortin peptides and fluconazole were tested in concentrations of 10^−6 M to 10^−4 M. There were at least six replicates for each concentration of peptide.

TNF-α = TNF-α production by activated N9 microglia; type: cell-based, murine; details: microglia stimulated with LPS+IFN-γ for 24 hr, micromolar concentrations
Description: as §1, §2, §3, §4

human neutrophils = assay: C. albicans killing by human neutrophils; type: cell-based; details: 2 hours at 37° C., vs. medium
Description: Venous blood (20 ml) from healthy volunteers was anticoagulated with heparin. Neutrophils were isolated using dextran sedimentation and Ficoll-Hypaque (Sigma Chemical Co., St. Louis, Mi., USA) centrifugation. Erythrocytes were lysed via hypotonic shock. Neutrophils represented at least 97% of the cell suspension. Cell viability, estimated by trypan blue exclusion, was >98%. Neutrophils were suspended to a final concentration in HBSS. C. albicans (1×10^6) were opsonized with human AB serum in a shaking water bath for 30 minutes at 37° C. Organisms were then incubated with neutrophils in medium or in medium with α-MSH (1-13) or α-MSH (11-13) in concentrations of 10^−15 M to 10^−4 M in a shaking water bath for 2 hours at 37° C. After incubation, the culture tubes were placed on ice to stop growth and extracellular organisms were washed twice with centrifugation at 1000×g at 4° C. A 2.5% sodium desoxycholoate solution was added to obtain a suspension of 10^6 cells/ml. Two 1/100 serial dilutions in HBSS were made to obtain a final suspension of 100 cells/ml. Aliquots of 1 ml were dispensed on blood agar plates and incubated for 48 hours at 37° C. Colony forming units (CFUs) were counted at the end of the incubation period. Experiments were run in triplicate and repeated using blood from 5 different donors.

cAMP = cAMP accumulation in N9 cells; type: cell-based, murine; details: resting cells and cells incubated with LPS+IFN-γ
Description: cAMP accumulation in N9 cells was measured as previously described. Briefly, cells in six-well plates were co-incubated at 37° C. with (1) medium; (2) forskolin (100 μM); (3) LPS (10 ng/mL)+IFN-γ (1 U/mL); (4) α-MSH (1-13) or α-MSH (11-13) (1, 10, 50 μM); (5) LPS+IFN-γ and either α-MSN (1-13) or α-MSH (11-13) (10 μM). Reactions were stopped after 3 min by aspirating supernatants, immediately adding 1 mL ethanol at −20° C. and freezing. cAMP content in the ethanol-soluble fraction was measured using an enzyme immunoassay kit (Amersham).

TNF-α and iNOS mRNA = assay: Northern blot of TNF-α and iNOS mRNA in activated microglia; type: cell-based, murine
Description: Total cellular RNA was extracted from 10^6 adherent microglial cells plated in six-well tissue culture plates (Corning). Electrophoresis of RNA samples (10 μg/lane) was performed in 1% agarose/2.2 M formaldehyde gels and the gels subsequently blotted onto nylon filters by capillary action and baked for 2 h before prehybridization. The cDNA fragments encoding murine TNF-α and mouse macrophage iNOS were ^32P-labeled using the Ready-To-Go DNA Labeling Kit (Pharmacia, Uppsala, Sweden) before hybridization of nylon filters and autoradiography. Blots were subsequently rehybridized with human glyceraldehyde-3-phosphate dehydrogenase (G-3-PDH) cDNA probe as an internal control (Clontech Laboratories, Inc., Palo Alto, Calif.).

NO2^− = assay: Nitrite (NO) production by activated N9 microglia; type: cell-based, murine; details: microglia stimulated with LPS+IFN-γ for 24 hr, micromolar concentrations
Description: as §1, §2
NO is rapidly oxidized to nitrite (NO2) in culture medium, and nitrite concentration is an indicator of NO production. […] Samples were incubated at room temperature for 10 min and absorbency was measured at 540 nm with the use of a microplate reader. Nitrite concentrations were calculated using a sodium nitrite standard curve.
as §4

fever = details: relative to parent peptide or to the 11-13 sequence; cited from earlier work

Substance: Ac-[D-Lys^11]α-MSH (11-13)-NH2
- % Inhibition of swelling ([1]; 10 μg IP, 3 h): 23%
- % Inhibition of swelling ([1]; 10 μg IP, 6 h): 17%
- % Inhibition of swelling ([1]; 20 μg IP, 3 h): 25%
- % Inhibition of swelling ([1]; 20 μg IP, 6 h): 16%
- % Inhibition of swelling ([1]; 40 μg IP, 3 h): 35%
- % Inhibition of swelling ([1]; 40 μg IP, 6 h): 37%
- % Inhibition of swelling ([1]; 80 μg IP, 3 h): 34%
- % Inhibition of swelling ([1]; 80 μg IP, 6 h): 29%
- overall effect on ear inflammation (ANOVA) ([1]; 10-80 μg IP, 3 and 6 h): significantly reduced inflammation
- general potency relative to L-form tripeptide [2]: same general potency as the L-form of the tripeptide α-MSH (11-13)

Substance: Lys-Pro-Val (KPV; Designed polypeptide with anti-inflammatory, anti-bacterial, anti-fungal and antipyretic properties.) [α-MSH (11-13), C-terminal tripeptide KPV of α-MSH]
- reduction in the number of filamentous cells (inhibition of germination) (C. albicans [3]): 54-58%
- reduction of production of IL-6 (IL-6): 50%
- relative potency in reducing C. albicans viability (C. albicans [4]; 10^−4M melanocortin peptides): the most effective
- effect on C. albicans colony forming units (CFU) (C. albicans [4]; 2 hours at 37° C., vs. control): greatly reduced; also recorded: significantly decreased C. albicans colony forming units; also recorded: inhibitory effect
- reduction of production of TNF-α (TNF-α): 45%
- killing of C. albicans by human neutrophils (human neutrophils): enhanced the killing
- cAMP accumulation (cAMP): increased cAMP accumlation
- mRNA for TNF-α and iNOS (Northern blot) (TNF-α and iNOS mRNA): inhibition of mRNA transaction for TNF-α and iNOS
- reduction of production of NO2^− (NO2^−): 40%

Substance: [Nle^4, D-Phe^7]-α-MSH
- antipyretic potency (fever): approximately ten times more potent than the parent peptide in reducing fever
